Source: patent US20240217911A1, “A hydroxycarboxylic acid for the treatment of cancer” (UNIVERSITÄT ZÜRICH, priority 2021, published 2024)
“Also recorded” adds a separate entry of the source.

How the values were obtained:
Format in all cases: in vivo, mouse
[1] = tested on: MC-38 tumours; assay: MC-38 subcutaneous CRC tumour model; conditions: for anti-tumour effect, tumour volume and weight (FIG. 15): 5-FU or both; for anti-tumour effect, tumour volume and weight (FIG. 11-13): metabolite 200 uM, 200 uL/mouse i.p. day 6, 9, 12, vs vehicle; for tumour reduction, tumor volume and weight (FIG. 17A-B): GPR84 agonist/antagonist 200 uM
Experimental: WT C57BL/6JRJ were purchased from Janvier Labs (France). All mice were kept in specific-pathogen-free conditions. Males and female littermates between 8-12 weeks were used for all the experiments. All animal experiments were performed according to Swiss animal welfare legislation and approved by the local veterinary office (Veterinaramt des Kantons Zurich). […]
For CRC injection models, MC38 cells were suspended in DMEM high glucose cell culture medium mixed 1:1 with Matrigel and 300,000 cells injected subcutaneously into the flanks, and mice euthanized […] after injection. Tumour development was measured every 3 days using a digital calliper. Tumour volume was calculated using the ellipsoid formula: 4/3*3.14*Length/2*(Width/2)^2, where the shorter dimension was used as width and depth. Mice were terminated 14 days after subcutaneous injection or when tumour volume reached 1 cm^3 or the length reached 2 cm. For the other solid tumours subcutaneous injection models, B16 melanoma cells were suspended in DMEM high glucose cell culture medium mixed 1:1 with Matrigel and 200,000 cells injected into both flanks of the animal. Lewis lung carcinoma cells LLC1.1 were suspended in DMEM high glucose cell culture medium mixed 1:1 with Matrigel and 200,000 cells injected in the right flank of a mouse. PD-1 blockade was performed in the subcutaneous tumour model by injecting of 200 μg/mouse anti-PD1(CD279) antibody (BioXCell; clone 29F.1A12) or IgG isotype control (BioXCell; clone 2a3) i.p. on days 6, 9 and 12 after subcutaneous MC-38 cells injection. 5-Fluorouracil (5-FU) was administered by i.p injections of 20 mg/kg 5-FU dissolved in DMSO at days 6, 9, and 12.
(§1) Each metabolite was dissolved in dimethyl sulfoxide (DMSO) to reach the stock concentration of 100 mM. For mice injections, stock solution of each metabolite was diluted 1:500 in saline to reach final concentration of 200 uM and 200 uL/mouse were injected intraperitoneally on day 6, day 9 and day 12-post tumour cell injection. Metabolites used: 3-Hydroxydodecanedioic acid (R and S forms) (collaborators UZH), Dodecanedioic acid (Sigma), Decanoic acid (Sigma), Unidecanoic acid (Sigma), Dodecanoic acid (Sigma), Tridecanoic acid (Sigma), Tetradecanoic acid (Angene), 3-Hydroxydecanoic acid (Sigma), 3-Hydroxydodecanoic acid (Sigma), 3-Hydroxytetradecanoic acid (Angene). GPR84 receptor blockade was performed in the subcutaneous tumour model by injecting 200 uL/mouse of 200 uM of GPR84 antagonist GLPG1205 (MCE MedChemExpress).

[2] = tested on: LLC1.1 lung cancer; assay: LLC1.1 Lewis lung carcinoma subcutaneous tumour model; conditions: LLC.1 lung cancer; vs vehicle
Experimental: (§2) WT C57BL/6JRJ were purchased from Janvier Labs (France). All mice were kept in specific-pathogen-free conditions. Males and female littermates between 8-12 weeks were used for all the experiments. All animal experiments were performed according to Swiss animal welfare legislation and approved by the local veterinary office (Veterinaramt des Kantons Zurich).
(§3) Clostridiales strains Eubacterium hallii: DSM3353T, Faecalibacterium prausnitzii: DSM17677, Roseburia intestinalis: DSM14610T, Anaerostipes caccae: DSM14662T were obtained from PharmaBiome AG, Zurich (sometimes referred to as butyrate producers, 4 clostridia consortia CC4, or BP). All strains were cultivated at 37° C. in yeast extract, casitone and fatty acid (YCFA) medium (Lopez et al. 2012. Appl Environ Microbiol 78, 420-428). Strains were maintained under anoxic CO2 atmosphere using Hungate techniques. […] Viability of cells was confirmed using propidium iodide staining measured by flow cytometry. […]
(§4) For CRC injection models, MC38 cells were suspended in DMEM high glucose cell culture medium mixed 1:1 with Matrigel and 300,000 cells injected subcutaneously into the flanks, and mice euthanized […] after injection. Tumour development was measured every 3 days using a digital calliper. Tumour volume was calculated using the ellipsoid formula: 4/3*3.14*Length/2*(Width/2)^2, where the shorter dimension was used as width and depth. […]

[3] = tested on: B16 melanoma; assay: B16 melanoma subcutaneous tumour model; conditions: vs vehicle
Experimental: as §2, §3, §4

[4] = tested on: CD8+ T cells; assay: flow analysis of CD8+ T cells in MC-38 tumours; conditions: flow analysis in MC-38 tumor
Experimental: FIG. 17. A, MC-38 tumor volume curve (mm^3) and B, tumorweight (g) in WT mice treated with GPR84 agonist, 3-OH dodecanoic acid (3-OH Dodeca), GPR84 antagonist, GPR84 antagonist & 3-OH Dodeca or saline (Ctrl). C, Bar charts of flow analysis in tumor corresponding to the groups described in A and B. Two-way ANOVA with Dunnett's correction for multiple comparisons (A & C). Means±SEM analyzed by Kruskal-Wallis and Dunn's correction for multiple comparison (B). Experiments were performed at least twice, n=5.
as §1

SMILES | anti-tumour effect, tumour volume and weight (FIG. 15) ([1]; 3-hydroxydodecanoic acid) | anti-tumour effect, tumour volume and weight (FIG. 14) ([1]; 3-hydroxydodecanoic acid, anti-PD-1 or both) | anti-tumour effect, tumour volume and weight (FIG. 11-13) [1] | anti-tumour effect, tumour volume and weight (FIG. 11-13) ([1]; listed as CH3(CH2)8 CHOH—(CH2)—CO2H) | anti-tumour effect, tumour volume and weight (FIG. 16 B) [2] | anti-tumour effect, tumour volume and weight (FIG. 16 A) [3] | expression of granzyme B and IFNγ by CD8+ T cells (FIG. 17C) [4] | tumour reduction, tumor volume and weight (FIG. 17A-B) ([1]; 200 uL/mouse i.p. day 6, 9, 12) | tumour reduction, tumor volume and weight (FIG. 17A-B) ([1]; 200 uL/mouse i.p. day 6, 9, 12, listed as 2-(hexylthio)pyramidine-4,6-diol)
CCCCCCCCCC(O)CC(=O)O (stereo not shown) [3-hydroxydodecanoic acid] | comparable anti-tumour effect | comparable anti-tumour effect | most favourable anti-tumour effect; also recorded: anti-tumour effect of the bacterial metabolites was specifically induced by 3-hydroxydodecanoic acid | inhibited tumour growth | clear anti-tumour effect | clear anti-tumour effect | similarly increased expression of granzyme B and IFNγ by CD8+ T cells | – | –
O=c1[nH]cc(F)c(=O)[nH]1 [5-FU, 5-fluorouracil, reference compound] | comparable anti-tumour effect | – | – | – | – | – | – | – | –
O=c1nc(OC[C@@H]2COCCO2)cc2n1CCc1cc(C#CC3CC3)ccc1-2 [GPR84 antagonist, reference compound] | – | – | – | – | – | – | entirely lost this anti-tumour immunological change | completely abrogated the anti-tumour effect of 3-hydroxydodecanoic acid | –
CCCCCCSc1nc(O)cc(=O)[nH]1 [ZQ-16, 2-(hexylthio)pyramidine-4,6-diol, reference compound] | – | – | – | – | – | – | similarly increased expression of granzyme B and IFNγ by CD8+ T cells | limit tumour growth in a model of cancer in vivo | inhibited tumour growth
